The source of these data is paper PMC7516017, “Organoids to Study Intestinal Nutrient Transport, Drug Uptake and Metabolism – Update to the Human Model and Expansion of Applications” (Frontiers in Bioengineering and Biotechnology, 2020).

One assay concerns human duodenal organoids. Briefly: Live-cell imaging of intracellular calcium (Fura-2-AM). In kind it is cell-based. The note with it: Fura-2-AM 7μM, ratio F(λex340nm)/F(λex380nm), 100µM ATP. As for the experimental part:
(§1) 1.9. Imaging of intracellular calcium concentrations
(§2) Concentrations of substances used were: 100µM ATP (Sigma), 50mM glucose, and 50mM fructose. Using a Leica DMI6000 B inverted […]
(§3) analyzed using the Leica Application Suite Advanced Fluorescence software. Imaging of intracellular calcium concentrations was performed in human duodenal organoids.
(§4) Of note, the B27 supplement contains a n/a […]
(§5) incubated for the indicated times. Controls were not pulsed with insulin. 2. Addition of butyrate: murine colonic organoids were grown for 6 days in IC. 100µM carnitine and 1mM butyrate were added and organoids were incubated for the indicated times. Time point zero was sampled immediately after addition of butyrate and carnitine. Control organoids were not exposed to butyrate. 3. Addition of d13- […]
(§6) organoids were incubated for the indicated times. Controls were exposed to carnitine and BSA without […]
(§7) 5min) to remove remaining matrigel.
(§8) Comfort; Eppendorf, Hamburg, Germany). The samples were dried in nitrogen gas and reconstituted […]
(§9) To determine amino acid and
(§10) Analytics, Zwingen, Switzerland) was used. Data analysis was performed using Analyst 1.7® and SCIEX OS 1.4 software (Sciex).
A general note: Calcium assays in cells follow changes in intracellular calcium, usually with a dye or a luminescent sensor.

The subject of assay [1] is murine small intestinal organoids. Briefly: Amino acid and acylcarnitine levels after insulin (LC-MS/MS). The format is cell-based, mouse. The conditions noted are these: 1 μM insulin, measured after 0, 30, 60, 120 min.
Procedure: For live-cell imaging of intracellular calcium concentrations, organoids were loaded with 7μM Fura-2
AM (Life Technologies) in HEPES-saline buffer as used for imaging of intracellular acidification for
20 min at 37 °C and then washed 5 times with PBS (pH 7.4; 37 °C). Concentrations of substances used were: 100µM ATP (Sigma), 50mM glucose, and 50mM fructose. Using a Leica DMI6000 B inverted
fluorescence microscope (Leica Microsystems) at 20× magnification, images were captured every 5-
10s. The fluorescence ratio F(λex340nm)/ F(λex380nm) was calculated and imaging data were
Quantification of amino acid and acylcarnitine concentrations using targeted LC-MS/MS
Metabolite analyses were performed with samples from three different experiments: 1.
incubated for the indicated times. […] Addition of butyrate: murine colonic organoids were grown for 6 days in IC. 100µM carnitine and 1mM butyrate were added and organoids were incubated for the indicated times. […]
palmitate. Medium from untreated organoids was measured to verify organoids as source of […]
acylcarnitine concentrations, quantitative LC -MS/MS was applied as described previously [6, 7]. […]
The subject of assay [2] is murine large intestinal organoids. The assay is described as follows: Acylcarnitine profiles after butyrate (LC-MS/MS). The format is cell-based, mouse. The note with it: 1mM butyrate with 100µM carnitine, measured 0, 5, 10, 30, 60 min. On the procedure:
as §1, §2, §3, §4, §5, §6, §7, §8, §9, §10

Turning to `Nc1ncnc2c1ncn2[C@@H]1O[C@H](COP(=O)(O)OP(=O)(O)OP(=O)(O)O)[C@@H](O)[C@H]1O` [ATP], the intracellular calcium response result in the assay with human duodenal organoids is “increases in intracellular calcium”.

As to insulin, in assay [1], the “tau-methylhistidine and propionylcarnitine (C3) after insulin stimulation” value is reported as “diminished with lowest levels observed 60 min after insulin stimulation”.

For the molecule `CCCC(=O)O` [butyrate], the “acetylcarnitine, butyrylcarnitine and palmitoylcarnitine concentrations” value in assay [2] was “increasing to maximal concentrations 60 min after butyrate addition”.
